# Values joined by “and” are separate entries in the source; they are usually repeats but may differ in a detail not shown here. Equal values may be shown once.
# Experiment: Ready-to-use formulation stability at 25° C./60% RH, 5 mg/mL (R,R)-pyrodach-2 in 10 mM Potassium Phosphate Buffer at pH 7.4, 10 mL vials
# Assay type: physicochemical
# Method: A scalable and commercially viable process for the manufacture of a ready-to-use formulation of (R,R)-pyrodach-2 in 10 mM buffer adjusted to a pH of 7.0-7.5 comprises the steps of: a) preparing a 10 mM aqueous solution of buffer; b) adding sufficient hydroxide base to effect neutralization of the added (R,R)-pyrodach-2 to reach a pH of about 7; c) adding (R,R)-pyrodach-2 and allowing it to dissolve; d) if necessary adding additional hydroxide to adjust the pH into a range of about 7.0-7.5; and e) filtering the solution under sterile conditions, filling the solution into glass vials, and covering it with a stopper and/or a cap. Stability data on two large batches of 5 mg/mL (R,R)-pyrodach-2 in 10 mM potassium phosphate buffer were generated. One such batch at pH=7.2 was evaluated at both 25° C./60% RH and refrigerated (2-8° C.) conditions, with data summarized in Table 4 and Table 5, respectively. […] Similar observations have been made for the ready-to-use liquid formulation at pH7.4, as illustrated in Table 6 and Table 7.
# • Transfer 4564.6 mg±0.5 mg of potassium phosphate dibasic, trihydrate to a 2-L volumetric flask. • Fill flask to approximately 75% volume with water, swirl as needed to dissolve all solids. • Volumetrically transfer 32.0 mL of 1N KOH to flask. • Dilute flask to volume with water and mix well. • Record pH of final solution. This is the diluent. • Transfer 7653.1 mg±0.5 mg of (R,R)-pyrodach-2 to a compounding vessel. • Transfer 1500 mL of the diluent to the vessel and stir to dissolve solids. • Record pH of final solution. • Pass entire solution through a 0.22 μm sterile filter membrane into a sterile collection vessel. • Calculate (R,R)-pyrodach-2 solution concentration
# To a […] glass beaker equipped with mechanical mixer was add 24645.5 g of sterile water for injection. With agitation 47.03 gm of dibasic potassium phosphate USP was added and the solids allowed to dissolve. To the stirred solution was added 253.8 gm of 1.00 N potassium hydroxide. Sterile water for injection USP (900.0 gm) was used as a rinse to facilitate both additions. With vigorous agitation, (R,R)-pyrodach-2 (201.87 gm) was slowly added and agitation continued until all of the solids dissolved. Sterile water for injection USP (900.0 gm) was used as a rinse to facilitate the addition. The pH was determined to be 6.7. A total of 85 mL of 1.00 N potassium hydroxide was added in 5.0 mL aliquots to adjust the pH to 7.3. The solution was sterile filtered through 0.22μ Millipore Millipack filter and aseptically filled, 10 ml top a vial in 10 mL in 10 cc Wheaton clear molded vails, stoppered with a 20 mm stopper and crimp seal capped.
smiles,measurement,setting,value
"O=P1(O)OP(=O)(O)[O][Pt]2([NH][C@@H]3CCCC[C@H]3[NH]2)[O]1 (stereo partly drawn) [(R,R)-pyrodach-2, (R,R)-trans-1,2-cyclohexanediamine-(dihydrogenpyrophosphato)platinum(II)]",(DACH) Pt-diaquo (~RRT 0.3),1 Month,0.16%
same,(DACH) Pt-monoaquo (~RRT 0.7),1 Month,1.12%
same,Assay (Potency),1 Month,98.4%
same,PT-112 Dimer (~RRT 4.0),1 Month,0.35%
same,RRT 0.50,1 Month,0.07%
same,RRT 0.56,1 Month,0.15%
same,RRT 0.68,1 Month,0.21%
same,RRT 0.86,1 Month,0.06%
same,RRT 3.1-3.2,1 Month,0.56%
same,Total Related Substances,1 Month,3%
same,pH,1 Month,7.4
same,(DACH) Pt-diaquo (~RRT 0.3),3 Month,0.15%
same,(DACH) Pt-monoaquo (~RRT 0.7),3 Month,0.92%
same,Assay (Potency),3 Month,99.2%
same,PT-112 Dimer (~RRT 4.0),3 Month,0.33%
same,RRT 0.50,3 Month,0.11%
same,RRT 0.56,3 Month,0.20%
same,RRT 0.68,3 Month,0.11%
same,RRT 0.86,3 Month,0.05%
same,RRT 3.1-3.2,3 Month,0.77%
same,RRT 3.58,3 Month,0.14%
same,Total Related Substances,3 Month,3%
same,pH,3 Month,7.4
same,(DACH) Pt-diaquo (~RRT 0.3),6 Month,0.19%
same,(DACH) Pt-monoaquo (~RRT 0.7),6 Month,0.30%
same,Assay (Potency),6 Month,96.7%
same,PT-112 Dimer (~RRT 4.0),6 Month,0.36%
same,RRT 0.42,6 Month,0.06%
same,RRT 0.46,6 Month,0.09%
same,RRT 0.50,6 Month,0.31%
same,RRT 0.56,6 Month,0.09%
same,RRT 0.68,6 Month,0.16%
same,RRT 0.86,6 Month,0.07%
same,RRT 3.1-3.2,6 Month,0.86%
same,RRT 3.58,6 Month,0.37%
same,RRT 4.95,6 Month,0.06%
same,Total Related Substances,6 Month,3%
same,pH,6 Month,7.4
same,Particulate Matter (Light Obscuration),"6 Month, first value",87 particles particles per container
same,Particulate Matter (Light Obscuration),"6 Month, second value",3 particles particles per container
same,(DACH) Pt-diaquo (~RRT 0.3),9 Month,0.14%
same,(DACH) Pt-monoaquo (~RRT 0.7),9 Month,0.79%
same,Assay (Potency),9 Month,98.2%
same,PT-112 Dimer (~RRT 4.0),9 Month,0.34%
same,RRT 0.42,9 Month,0.08%
same,RRT 0.46,9 Month,0.08%
same,RRT 0.50,9 Month,0.39%
same,RRT 0.56,9 Month,0.11%
same,RRT 0.68,9 Month,0.11%
same,RRT 0.86,9 Month,0.06%
same,RRT 3.1-3.2,9 Month,0.84%
same,RRT 3.41,9 Month,0.08%
same,RRT 3.58,9 Month,0.65%
same,RRT 4.95,9 Month,0.21%
same,Total Related Substances,9 Month,4%
same,pH,9 Month,7.4
same,(DACH) Pt-diaquo (~RRT 0.3),12 Month,0.11%
same,(DACH) Pt-monoaquo (~RRT 0.7),12 Month,0.92%
same,Assay (Potency),12 Month,98.0%
same,PT-112 Dimer (~RRT 4.0),12 Month,0.30%
same,RRT 0.42,12 Month,0.10%
same,RRT 0.46,12 Month,0.07%
same,RRT 0.50,12 Month,0.38%
same,RRT 0.56,12 Month,0.19%
same,RRT 0.68,12 Month,0.11%
same,RRT 0.86,12 Month,0.05%
same,RRT 3.1-3.2,12 Month,0.82%
same,RRT 3.58,12 Month,0.70%
same,RRT 4.95,12 Month,0.34%
same,Total Related Substances,12 Month,4%
same,pH,12 Month,7.5
same,Particulate Matter (Light Obscuration),"12 Month, first value",118 particles per container
same,Particulate Matter (Light Obscuration),"12 Month, second value",7 particles particles per container
same,(DACH) Pt-diaquo (~RRT 0.3),15 Month,0.13%
same,(DACH) Pt-monoaquo (~RRT 0.7),15 Month,0.92%
same,Assay (Potency),15 Month,96.8%
same,PT-112 Dimer (~RRT 4.0),15 Month,0.28%
same,RRT 0.42,15 Month,0.12%
same,RRT 0.46,15 Month,0.08%
same,RRT 0.50,15 Month,0.44%
same,RRT 0.56,15 Month,0.20%
same,RRT 0.68,15 Month,0.11%
same,RRT 0.86,15 Month,0.05%
same,RRT 3.1-3.2,15 Month,0.78%
same,RRT 3.58,15 Month,0.78%
same,RRT 4.95,15 Month,0.51%
same,Total Related Substances,15 Month,4%
same,pH,15 Month,7.5
same,(DACH) Pt-diaquo (~RRT 0.3),18 Month,0.12%
same,(DACH) Pt-monoaquo (~RRT 0.7),18 Month,0.78%
same,Assay (Potency),18 Month,96.9%
same,PT-112 Dimer (~RRT 4.0),18 Month,0.29%
same,RRT 0.42,18 Month,0.15%
same,RRT 0.46,18 Month,0.13%
same,RRT 0.50,18 Month,0.59%
same,RRT 0.56,18 Month,0.09%
same,RRT 0.68,18 Month,0.08%
same,RRT 0.86,18 Month,0.05%
same,RRT 3.1-3.2,18 Month,0.73%
same,RRT 3.44,18 Month,0.12%
same,RRT 3.58,18 Month,1.06%
same,RRT 4.95,18 Month,0.69%
same,Total Related Substances,18 Month,5%
same,pH,18 Month,7.5
same,(DACH) Pt-diaquo (~RRT 0.3),21 Month,0.11%
same,(DACH) Pt-monoaquo (~RRT 0.7),21 Month,1.13%
same,Assay (Potency),21 Month,96.3%
same,PT-112 Dimer (~RRT 4.0),21 Month,0.28%
same,RRT 0.42,21 Month,0.16%
same,RRT 0.46,21 Month,0.12%
same,RRT 0.50,21 Month,0.60%
same,RRT 0.56,21 Month,0.17%
same,RRT 0.68,21 Month,0.12%
same,RRT 3.1-3.2,21 Month,0.75%
same,RRT 3.41,21 Month,0.07%
same,RRT 3.44,21 Month,0.05%
same,RRT 3.58,21 Month,1.12%
same,RRT 4.95,21 Month,0.89%
same,Total Related Substances,21 Month,6%
same,pH,21 Month,7.4
same,(DACH) Pt-diaquo (~RRT 0.3),24 Month,0.11%
same,(DACH) Pt-monoaquo (~RRT 0.7),24 Month,0.85%
same,Assay (Potency),24 Month,94.6%
same,PT-112 Dimer (~RRT 4.0),24 Month,0.28%
same,RRT 0.42,24 Month,0.18%
same,RRT 0.46,24 Month,0.12%
same,RRT 0.50,24 Month,0.70%
same,RRT 0.56,24 Month,0.17%
same,RRT 0.68,24 Month,0.13%
same,RRT 0.86,24 Month,0.05%
same,RRT 3.1-3.2,24 Month,0.72%
same,RRT 3.29,24 Month,0.06%
same,RRT 3.44,24 Month,0.05%
same,RRT 3.58,24 Month,1.07%
same,RRT 4.95,24 Month,1.12%
same,Total Related Substances,24 Month,6%
same,pH,24 Month,7.4
same,(DACH) Pt-diaquo (~RRT 0.3),Initial,0.16%
same,(DACH) Pt-monoaquo (~RRT 0.7),Initial,0.84%
same,Assay (Potency),Initial,98.1%
same,PT-112 Dimer (~RRT 4.0),Initial,0.34%
same,RRT 0.50,Initial,0.06%
same,RRT 0.56,Initial,0.08%
same,RRT 0.68,Initial,0.09%
same,RRT 3.1-3.2,Initial,0.11%
same,Total Related Substances,Initial,2%
same,pH,Initial,7.4
same,Particulate Matter (Light Obscuration),"Initial, first value",30 particles particles per container and 30 particles per particles per container
same,Particulate Matter (Light Obscuration),"Initial, second value",11 particles particles per container and 11 particles per particles per container
